Experimental data taken from PubChem BioAssay AID624434 (The Scripps Research Institute Molecular Screening Center, 2012).
Activity calls are given as the source filed them.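 Rule for the calls: active = inhibition of 30% or more at 50 µM; inactive = inhibition under 30% at 50 µM.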

target: Serine/threonine-protein phosphatase 5 (Homo sapiens) (UniProt P53041); experiment: PP5 phosphatase inhibitors, OMFP cleavage, confirmation, biochemical, fluorescence, round 5, powder samples (AID 624434); details: purified PP5c, OMFP dephosphorylation, at 50 µM, hits give high values
Sequence (P53041 whole entry, looked up): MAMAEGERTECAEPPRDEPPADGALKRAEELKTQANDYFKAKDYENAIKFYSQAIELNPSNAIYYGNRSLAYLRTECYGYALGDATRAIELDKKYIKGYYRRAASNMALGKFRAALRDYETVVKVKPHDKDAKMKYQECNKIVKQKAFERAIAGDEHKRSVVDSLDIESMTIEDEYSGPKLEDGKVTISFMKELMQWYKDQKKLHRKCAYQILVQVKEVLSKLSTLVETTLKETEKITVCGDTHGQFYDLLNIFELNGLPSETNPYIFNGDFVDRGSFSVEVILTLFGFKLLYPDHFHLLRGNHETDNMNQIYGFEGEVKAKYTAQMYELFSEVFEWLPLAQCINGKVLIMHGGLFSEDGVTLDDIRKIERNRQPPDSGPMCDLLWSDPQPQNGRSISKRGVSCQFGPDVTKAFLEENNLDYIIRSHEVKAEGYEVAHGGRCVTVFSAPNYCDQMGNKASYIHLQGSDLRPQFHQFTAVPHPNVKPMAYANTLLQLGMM

SMILES | inhibition
O=C(O)c1cnn(-c2ccccc2)n1 | 3.79% (inactive)
COc1cccc(-c2n[nH]nc2C(=O)O)c1 | 77.6%
O=Cc1n[nH]nc1-c1ccccc1 | 1.47% (inactive)
O=C(O)c1n[nH]nc1-c1cccnc1 | 4.32% (inactive)
O=C(O)c1n[nH]nc1-c1ccccc1-c1ccccc1 | 52.6%
CNC(=O)c1n[nH]nc1-c1ccccc1 | -1.73% (inactive)
O=C(O)c1n[nH]nc1C(=O)O | 12.4% (inactive)
CN(C)C(=O)c1n[nH]nc1-c1ccccc1 | 0.413% (inactive)
O=C(O)c1[nH]ccc1-c1ccccc1 | 13.8% (inactive)
O=C(O)c1n[nH]nc1-c1cccc(F)c1 | 70.5%
CC(C)c1ccccc1-c1n[nH]nc1C(=O)O | 47.4%
O=C(O)c1n[nH]nc1-c1ccccc1F | 81.1%
COc1ccccc1-c1n[nH]nc1C(=O)O | 83.4%
CC(C)Oc1ccccc1-c1n[nH]nc1C(=O)O | 84.9%
Cc1ccccc1-c1n[nH]nc1C(=O)O | 69.3%
O=C(O)c1n[nH]nc1-c1ccc(F)cc1 | 66.5%
O=C(O)c1n[nH]nc1-c1ccccn1 | 46.8%
NC(=O)c1n[nH]nc1-c1ccccc1 | 5.21% (inactive)
CCc1ccccc1-c1n[nH]nc1C(=O)O | 62.5%
CCOc1ccccc1-c1n[nH]nc1C(=O)O | 85.6%
N#Cc1n[nH]nc1-c1ccccc1 | 2.79% (inactive)
COc1ccc(-c2n[nH]nc2C(=O)O)cc1 | 70%
O=C(O)c1n[nH]nc1Br | 10.6% (inactive)
O=C(O)c1n[nH]nc1-c1ccccc1O | 81.9%
c1ccc(-c2n[nH]nc2-c2nn[nH]n2)cc1 | 1.15% (inactive)
